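Growth conditions: 96-well plates. Treatment: test compound, 48 hours, 5 concentrations. Analysis: linear interpolation between bracketing concentrations; unreached endpoints set to highest concentration. TGI: concentration producing complete growth inhibition.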
How the values were obtained:
Test in all cases: NCI-60 cell line screen, 48 h
[1] = tested on: M14 melanoma
[2] = tested on: PC-3 prostate
[3] = tested on: NCI-H460 lung
[4] = tested on: SW-620 colon
[5] = tested on: SK-OV-3 ovarian
[6] = tested on: KM12 colon
[7] = tested on: BT-549 breast
[8] = tested on: MCF7 breast
[9] = tested on: UACC-257 melanoma
[10] = tested on: A498 renal
[11] = tested on: HCT-116 colon
[12] = tested on: SF-539 CNS
[13] = tested on: SR leukemia
[14] = tested on: HT29 colon
[15] = tested on: IGROV1 ovarian
[16] = tested on: OVCAR-5 ovarian
[17] = tested on: U251 CNS
[18] = tested on: CCRF-CEM leukemia
[19] = tested on: LOX IMVI melanoma
[20] = tested on: SF-268 CNS
[21] = tested on: SNB-75 CNS
[22] = tested on: COLO 205 colon
[23] = tested on: SNB-19 CNS
[24] = tested on: K-562 leukemia
[25] = tested on: NCI-H23 lung
[26] = tested on: SK-MEL-2 melanoma
[27] = tested on: NCI-H226 lung
[28] = tested on: HCT-15 colon
[29] = tested on: HS 578T breast
[30] = tested on: UACC-62 melanoma
[31] = tested on: EKVX NSCLC
[32] = tested on: HCC-2998 colon
[33] = tested on: RPMI-8226 leukemia
[34] = tested on: OVCAR-3 ovarian
[35] = tested on: TK-10 renal
[36] = tested on: SK-MEL-5 melanoma
[37] = tested on: MDA-MB-435
[38] = tested on: OVCAR-4 ovarian
[39] = tested on: UO-31 renal
[40] = tested on: 786-0 renal
[41] = tested on: OVCAR-8 ovarian
[42] = tested on: DU-145 prostate
[43] = tested on: T-47D breast
[44] = tested on: MOLT-4 leukemia
[45] = tested on: SF-295 CNS
[46] = tested on: SK-MEL-28 melanoma
[47] = tested on: MDA-MB-231 breast
[48] = tested on: HOP-62 NSCLC
[49] = tested on: HOP-92 NSCLC
[50] = tested on: NCI-H522 lung
[51] = tested on: CAKI-1 renal
[52] = tested on: NCI/ADR-RES ovarian
[53] = tested on: ACHN renal
[54] = tested on: A549 NSCLC
[55] = tested on: SN12C renal
[56] = tested on: MALME-3M melanoma
[57] = tested on: RXF 393 renal
[58] = tested on: HL-60(TB) leukemia

COc1cc([C@@H]2OC[C@@H]3C(c4cc(OC)c5c(c4)OCO5)OC[C@@H]32)cc(OC)c1OC (stereo partly drawn)
TGI [1]: > 100 µM
TGI [2]: > 100 µM
TGI [3]: > 100 µM
TGI [4]: > 100 µM
TGI [5]: > 100 µM
TGI [6]: > 100 µM
TGI [7]: > 100 µM
TGI [8]: > 100 µM
TGI [9]: > 100 µM
TGI [10]: > 100 µM
TGI [11]: > 100 µM
TGI [12]: > 100 µM
TGI [13]: > 100 µM
TGI [14]: > 100 µM
TGI [15]: > 100 µM
TGI [16]: > 100 µM
TGI [17]: > 100 µM
TGI [18]: > 100 µM
TGI [19]: > 100 µM
TGI [20]: > 100 µM
TGI [21]: > 100 µM
TGI [22]: > 100 µM
TGI [23]: > 100 µM
TGI [24]: > 100 µM
TGI [25]: > 100 µM
TGI [26]: > 100 µM
TGI [27]: > 100 µM
TGI [28]: > 100 µM
TGI [29]: > 100 µM
TGI [30]: > 100 µM
TGI [31]: > 100 µM
TGI [32]: > 100 µM
TGI [33]: > 100 µM
TGI [34]: > 100 µM
TGI [35]: > 100 µM
TGI [36]: > 100 µM
TGI [37]: > 100 µM
TGI [38]: > 100 µM
TGI [39]: > 100 µM
TGI [40]: > 100 µM
TGI [41]: > 100 µM
TGI [42]: > 100 µM
TGI [43]: > 100 µM
TGI [44]: > 100 µM
TGI [45]: > 100 µM
TGI [46]: > 100 µM
TGI [47]: > 100 µM
TGI [48]: > 100 µM
TGI [49]: > 100 µM
TGI [50]: > 100 µM
TGI [51]: > 100 µM
TGI [52]: > 100 µM
TGI [53]: > 100 µM
TGI [54]: > 100 µM

CCOC(=O)C1=C(C)OC2(O)C=CC(O)=C3C(=O)N(c4ccccc4)C(=O)C312 (stereo not drawn)
TGI [1]: > 100 µM
TGI [55]: > 100 µM
TGI [2]: > 100 µM
TGI [3]: > 100 µM
TGI [5]: > 100 µM
TGI [56]: 41.7 µM
TGI [6]: > 100 µM
TGI [7]: 70.5 µM
TGI [57]: 47.7 µM
TGI [8]: 79.4 µM
TGI [9]: 99.4 µM
TGI [11]: > 100 µM
TGI [12]: 68.2 µM
TGI [13]: 53.2 µM
TGI [14]: 76.7 µM
TGI [15]: 68.2 µM
TGI [16]: > 100 µM
TGI [17]: > 100 µM
TGI [19]: 52.9 µM
TGI [20]: > 100 µM
TGI [21]: 87.8 µM
TGI [22]: > 100 µM
TGI [23]: 65.3 µM
TGI [24]: > 100 µM
TGI [25]: > 100 µM
TGI [26]: 68.4 µM
TGI [27]: 80.3 µM
TGI [28]: > 100 µM
TGI [29]: 61.7 µM
TGI [30]: 76.7 µM
TGI [31]: > 100 µM
TGI [32]: 73.9 µM
TGI [33]: 86.1 µM
TGI [34]: > 100 µM
TGI [35]: > 100 µM
TGI [37]: > 100 µM
TGI [38]: > 100 µM
TGI [39]: 65.4 µM
TGI [40]: > 100 µM
TGI [41]: > 100 µM
TGI [42]: > 100 µM
TGI [58]: > 100 µM
TGI [43]: > 100 µM
TGI [44]: > 100 µM
TGI [45]: > 100 µM
TGI [46]: 49.7 µM
TGI [47]: > 100 µM
TGI [48]: > 100 µM
TGI [49]: > 100 µM
TGI [50]: 35.6 µM
TGI [51]: > 100 µM
TGI [52]: > 100 µM
TGI [53]: > 100 µM
TGI [54]: > 100 µM

From PubChem BioAssay (NCI)
